One series concerns GSC targets. As to the kind of experiment: NK cell functional assay (51Cr release; CD107a, IFN-γ, TNF-α) against GSC targets after co-culture with GSCs. In kind it is cell-based, human. As to conditions: 48 hours co-culture with GSCs 1:1; inhibitor 10 μM. The protocol:
NK cells were co-cultured for 5 hours with K562 or GSCs target cells at an optimized effector:target ratio of 5:1 together with CD107a PE-CF594 (BD Biosciences), monensin (BD GolgiStopTM) and BFA (Brefeldin A, Sigma Aldrich). NK cells were incubated without targets as the negative control and stimulated with PMA (50 ng/mL) and ionomycin ([…], Sigma Aldrich) as positive control. Cells were collected, washed and stained with surface antibodies (mentioned above), fixed/permeabilized (BD Biosciences) and stained with IFN-7 v450 and TNF-α Alexa700 (BD Biosciences) antibodies.
NK cell cytotoxicity was assessed using chromium (siCr) release assay. Briefly, K562 or GSCs target cells were labeled with siCr (PerkinElmer Life Sciences, Boston, Mass.) at 50 μCi/5×10^5 cells for 2 hours. ^51Cr-labeled K562/GSC targets (5×105) were incubated for 4 h with serially diluted magnetically isolated NK cells in triplicate. Supernatants were then harvested and analysed for ^51Cr content.
For studies of NK cell suppression by GSCs and human astrocytes, magnetically selected healthy NK cells were cultured in Serum-free Stem Cell Growth Medium (SCGM; CellGro/CellGenix) supplemented with 5% glutamine, 5 μM HEPES (both from GIBCO/Invitrogen), and 10% FCS (Biosera) in 96-well flat-bottomed plates (Nunc) at 100,000/100D11. […]

For series [1] the following is noted: literature; cited from earlier work.
Series [2] deals with TGF-β1 Smad⅔ signaling pathway in NK cells. Nature of the series: Phospho-Smad⅔ assay in NK cells co-cultured with GSCs. It counts as cell-based, human. The conditions noted are these: healthy control NK cells + GSCs; inhibitor 10 μM. On the procedure: GSCs and purified NK cells were co-cultured for 48 hours in the presence of anti-TGFβ 123 (5 μg/ml) (R&D), HLA-ABC blocking antibody (clone W 6/32, Biolegend), CD44 blocking antibody (clone IM7, Biolegend), ILT-2 (CD85J) blocking antibody (clone HP-F1, ThermoFisher), CD155 blocking antibody (clone D171, GenTex), CD112 blocking antibody (clone TX31, Biolegend), 10 μM LY2109761, 10 μM galunisertib (LY2157299), 10 μM Cilengitide (Cayman Chemical) or 1 μM MMP-2/MMP-9 inhibitor I (Millipore). Cytotoxicity assays were then performed as described above.
NK cells were stained with Live/dead-aqua and CD56 ECD (Beckman Coulter) for 20 min in the dark at RT, washed with PBS fixed for 10 min in the dark. After one wash, the cells were permeabilized (Beckman Coulter kit) and stained with p-(5465/5467)-Smad2/p-(5423/5425)/Smad3-Alexa 647 mAb Phosflow antibody (BD Biosciences) for 30 minutes at room temperature. Cells incubated with 10 ng/ml recombinant TGF-β for 45 minutes in 37° C. were used as positive control.

The next series has as its system patient-derived GSCs. Nature of the series: Xenogeneic (PDX) NSG mouse model of GBM. In kind it is in vivo. The protocol: To test this prediction, a PDX mouse model of patient-derived GSC was used, in which, ffLuc+ patient-derived GSCs (0.5×10^6) were stereotactically implanted on day 0 through a guide-screw into the right forebrain of NOD/SCID/IL2Rγc null mice (n=4-5 per group). After 7 days, the mice were treated intratumorally with 2.0×10^6 human NK cells every 7 days for 11 weeks (FIG. 5A) with either galunisertib to block the TGF-β signaling or cilengitide to block the integrin pathway. Galunisertib was administered five times a week by oral gavage and cilengitide three times a week by intraperitoneal injection. Animals implanted with tumor that were either untreated or received NK cells alone, galunisertib alone or cilengitide alone served as controls.
To assess the anti-tumor effect of NK cells against GSCs in vivo, a NOD/SCID IL-2R7null (NSG) human xenograft model (Jackson Laboratories, Bar Harbor, Me.) was used. Intracranial implantation of GSCs into male mice was performed as previously described^55. A total of 60 mice were used. 0.5×10^5 GSCs were implanted intracranially into the right frontal lobe of 5 week old NSG mice using a guide-screw system implanted within the skull. To increase uniformity of xenograft uptake and growth, cells were injected into 10 animals simultaneously using a multiport Microinfusion Syringe Pump (Harvard Apparatus, Holliston, Mass.). Animals were anesthetized with xylazine/ketamine during the procedure. For in vivo bioluminescent imaging, GSCs were engineered to express luciferase by lentivirus transduction. Kinetics of tumor growth was monitored using weekly bioluminescence imaging (BLI; Xenogen-IVIS 200 Imaging system; Caliper, Waltham, Mass.). Signal quantitation in photons/second (p/s) was performed by determining the photon flux rate within standardized regions of interest (ROI) using Living Image software (Caliper). […] expanded donor peripheral blood NK cells^56 were injected intracranially via the guide-screw at day 7 post tumor implantation, and then every 7 days for 11 weeks. Mice were treated with either cilengitide or galunisertib (both from MCE Med Chem Express, Monmouth Junction, NJ) in the presence or absence of intracranial NK cell injection. Cilengitide was administered intraperitoneally 3 times a week starting at day 1 (250 μg/100 μl PBS) while galunisertib was administered orally (75 mg/kg) by gavage 5 days a week starting at day 1 (see FIG. 5A). […]
Brain tissue specimens from untreated control mice, mice treated with either NK cells alone, cilengitide alone, galunisertib alone or with combination therapy of NK+ cilengitide or NK+ galunisertib were collected. […] Sections lacking tumor were also evaluated for evidence of meningoencephalitis using a Leica DM 2500 light microscope by a board-certified veterinary pathologist. […]

The structures appear in SMILES notation.

In the case of `Cc1cccc(-c2nn3c(c2-c2ccnc4ccc(C(N)=O)cc24)CCC3)n1` [galunisertib], the “GSC-induced NK cell dysfunction: natural cytotoxicity against GSC targets” value with GSC targets is “preserving the natural cytotoxicity of NK cells against K562 or GSC targets”. The “safety in glioblastoma patients” value in series [1] is reported as “has been used safely in GBM patients”. Also, the “p-Smad⅔ expression (MFI) in NK cells co-cultured with GSCs” value in series [2] was “prevented GSCs from activating the TGF-β1 Smad⅔ signaling pathway in NK cells”. Also, in the series with patient-derived GSCs (NK cells intratumorally every 7 days for 11 weeks, galunisertib oral 5 times a week, cilengitide i.p. three times a week), the “tumor bioluminescence (BLI), first experiment” value is recorded as “tumor bioluminescence rapidly increased”. Further, in the series on patient-derived GSCs (mouse, in vivo), the “NK-mediated GBM killing / efficacy in PDX model of GBM (summary statements)” value was “enhances NK-mediated GBM killing in vivo”.

Source of the values: US20220378739A1, “NATURAL KILLER CELL IMMUNOTHERAPY FOR THE TREATMENT OF GLIOBLASTOMA AND OTHER CANCERS” (BOARD OF REGENTS, THE UNIVERSITY OF TEXAS SYSTEM, priority 2019, published 2022).
